Measurements published in patent publication US8063042B2, “Heterocyclic compounds” (Hoffmann-La Roche Inc., priority 2007, dated 2011).

Biological target: T1, human chemokine receptor 2 isoform B (Homo sapiens, UniProt P41597)
T1 construct: host or cells: CHOK1-CCR2B-A5 (CHO-K1) cells
T1 sequence (P41597 1-360 isoform P41597-2): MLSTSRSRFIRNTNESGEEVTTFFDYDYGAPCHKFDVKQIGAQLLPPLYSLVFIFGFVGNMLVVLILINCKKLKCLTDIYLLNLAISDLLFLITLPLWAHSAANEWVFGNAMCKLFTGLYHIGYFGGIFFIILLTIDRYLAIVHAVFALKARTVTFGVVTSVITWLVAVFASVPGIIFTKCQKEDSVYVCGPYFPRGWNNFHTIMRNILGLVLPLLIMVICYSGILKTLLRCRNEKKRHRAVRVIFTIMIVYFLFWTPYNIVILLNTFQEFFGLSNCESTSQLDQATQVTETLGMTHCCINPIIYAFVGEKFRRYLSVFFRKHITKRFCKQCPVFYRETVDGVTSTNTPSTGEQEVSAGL
Assay: Calcium mobilization assay
Type: cell-based
Details: Ca mobilisation assay for CCR2; CHOK1-CCR2B-A5 cells; antagonist activity against 20 nM MCP-1
Method: Calcium Mobilization Assay
CHOK1-CCR2B-A5 cells (from Euroscreen) stably overexpressing the human chemokine receptor 2 isoform B were cultured in Nutrient Hams F12 medium supplemented with 5% FBS, 100 U/ml penicillin, 100 μg/ml streptomycin, 400 μg/ml G418 and 5 μg/ml puromycin. For the assay cells were grown overnight in 384-well black clear flat bottom polystyrene plates (Costar) at 37° C. at 5% CO2. After washing with DMEM, 20 mM Hepes, 2.5 mM probenecid, 0.1% BSA (DMEM assay buffer) cells were loaded with 4 μM Fluo-4 in the same DMEM assay buffer for 2 hours at 30° C. Excess dye was removed and cells were washed with DMEM assay buffer. 384-well compound plates were prepared with DMEM assay buffer/0.5% DMSO with or without various concentrations of test compounds. Usually compounds were tested for agonist and antagonist activity.
Test compounds were added to the assay plate and agonist activity was monitored as fluorescence for 80 seconds with a FLIPR (488 nm excitation; 510-570 nm emission; Molecular Devices). After 20-30 min. of incubation at 30° C., 20 nM MCP-1 (R&D; Roche) was added and fluorescence was monitored again for 80 seconds. Increases in intracellular calcium are reported as maximum fluorescence after agonist exposure minus basal fluorescence before exposure. Antagonist activity is indicated as inhibitor concentration required for 50% inhibition of specific calcium increases.

SMILES | IC50 [nM]
CC1C(=O)N(CCCN2CCCC2)CCN1C(=O)/C=C/c1ccc(Cl)c(Cl)c1 (centres unmarked) [Example 15, 4-[(E)-3-(3,4-Dichloro-phenyl)-acryloyl]-3-methyl-1-(3-pyrrolidin-1-yl-propyl)-piperazin-2-one] | 76.5
O=C(/C=C/c1ccc(Cl)c(Cl)c1)N1CCN(CCCN2CCCCC2)S(=O)(=O)C1 [Example 34, (E)-3-(3,4-Dichloro-phenyl)-1-[1,1-dioxo-2-(3-piperidin-1-yl-propyl)-[1,2,5]thiadiazinan-5-yl]-propenone] | 202
O=C(/C=C/c1ccc(Cl)c(Cl)c1)N1CCN(CCCN2CCC(O)CC2)C(=O)C1 [Example 11, 4-[(E)-3-(3,4-Dichloro-phenyl)-acryloyl]-1-[3-(4-hydroxy-piperidin-1-yl)-propyl]-piperazin-2-one] | 284
CC1C(=O)N(CCCN2CCC3(CC3)[C@H](O)C2)CCN1C(=O)/C=C/c1ccc(Cl)c(F)c1 (stereo partly drawn) [Example 39, 4-[(E)-3-(4-Chloro-3-fluoro-phenyl)-acryloyl]-1-[3-((S)-4-hydroxy-6-aza-spiro[2,5]oct-6-yl)-propyl]-3-methyl-piperazin-2-one] | 13.7
O=C(/C=C/c1ccc(Cl)c(Cl)c1)N1CCN(CCCN2CCC(CO)C2)C(=O)C1 (centres unmarked) [Example 14, 4-[(E)-3-(3,4-Dichloro-phenyl)-acryloyl]-1-[3-(3-hydroxymethyl-pyrrolidin-1-yl)-propyl]-piperazin-2-one] | 307
